Results on 3 compounds are retold here after ChEMBL document CHEMBL5649166, “RIP3 induces apoptosis independent of pronecrotic kinase activity” (Mol Cell, 2014).

Experiment [1] concerns the target Protein kinase C eta type (Homo sapiens) (UniProt P24723). The experiment in a line: Inhibition of human PKCeta using ERMRPRKRQGSVRRRV as substrate at 1 uM in presence of 32P-ATP by Hotspot assay relative to control; values are per cent of control.
Experiment [2] has as its target Serine/threonine-protein kinase PAK 6 (Homo sapiens) (UniProt Q9NQU5). The experiment in a line: Inhibition of human PAK6 using RRRLSFAEPG as substrate at 1 uM in presence of 32P-ATP by Hotspot assay relative to control; values are per cent of control.
For experiment [3], the target named is Serine/threonine-protein kinase WNK2 (Homo sapiens) (UniProt Q9Y3S1). In words: Inhibition of human WNK2 using myelin basic protein as substrate at 1 uM in presence of 32P-ATP by Hotspot assay relative to control; values are per cent of control.
In experiment [4] the target is Calcium/calmodulin-dependent protein kinase type II subunit alpha (Homo sapiens) (UniProt Q9UQM7). The experiment in a line: Inhibition of human CAMK2a using KKALRRQETVDAL as substrate at 1 uM in presence of 32P-ATP by Hotspot assay relative to control; values are per cent of control.
For experiment [5], the target named is Mitogen-activated protein kinase kinase kinase 9 (Homo sapiens) (UniProt P80192). The experiment in a line: Inhibition of human MLK1/MAP3K9 using casein as substrate at 1 uM in presence of 32P-ATP by Hotspot assay relative to control; values are per cent of control.
Experiment [6] concerns the target Mitogen-activated protein kinase 9 (Homo sapiens) (UniProt P45984). In words: Inhibition of human JNK2 using ATF2 as substrate at 1 uM in presence of 32P-ATP by Hotspot assay relative to control; values are per cent of control.
In experiment [7] the target is STE20/SPS1-related proline-alanine-rich protein kinase (Homo sapiens) (UniProt Q9UEW8). In words: Residual activity of human STK39/STLK3 using myelin basic protein as substrate at 1 uM in presence of 32P-ATP by Hotspot assay relative to control.
The target of experiment [8] is T1, NUAK family SNF1-like kinase 2 (Homo sapiens) (UniProt Q9H093).
T1 sequence (whole entry): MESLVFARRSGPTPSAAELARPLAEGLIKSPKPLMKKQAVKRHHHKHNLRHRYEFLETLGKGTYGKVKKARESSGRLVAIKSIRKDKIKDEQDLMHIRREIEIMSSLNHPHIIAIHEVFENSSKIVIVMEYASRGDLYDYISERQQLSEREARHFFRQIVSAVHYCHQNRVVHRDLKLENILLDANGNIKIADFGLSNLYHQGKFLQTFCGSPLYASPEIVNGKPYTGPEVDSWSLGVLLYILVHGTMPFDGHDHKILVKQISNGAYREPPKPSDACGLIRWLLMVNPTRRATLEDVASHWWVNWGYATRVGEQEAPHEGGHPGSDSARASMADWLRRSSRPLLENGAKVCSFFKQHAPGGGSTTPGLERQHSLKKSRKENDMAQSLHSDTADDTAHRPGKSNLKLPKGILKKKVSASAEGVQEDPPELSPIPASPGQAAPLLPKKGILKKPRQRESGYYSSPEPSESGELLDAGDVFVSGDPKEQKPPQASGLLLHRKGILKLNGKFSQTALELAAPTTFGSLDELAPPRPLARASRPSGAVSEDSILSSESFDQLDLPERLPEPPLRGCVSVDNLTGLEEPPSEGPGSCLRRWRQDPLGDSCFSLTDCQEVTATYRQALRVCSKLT
In words: Inhibition of human SNARK/NUAK2 using KKKVSRSGLYRSPSMPENLNRPR as substrate at 1 uM in presence of 32P-ATP by Hotspot assay relative to control; values are per cent of control.

The species named for experiment [9] is Homo sapiens. The experiment in a line: Inhibition of human CDK2/cyclin A using RB Protein as substrate at 1 uM in presence of 32P-ATP by Hotspot assay relative to control; values are per cent of control.
The target in experiment [10] is Interleukin-1 receptor-associated kinase 1 (Homo sapiens) (UniProt P51617). In words: Inhibition of human IRAK1 using myelin basic protein as substrate at 1 uM in presence of 32P-ATP by Hotspot assay relative to control; values are per cent of control.
Experiment [11] deals with SRSF protein kinase 3 (Homo sapiens) (UniProt Q9UPE1). In words: Inhibition of human MSSK1/STK23 using GRSRSRSRSR as substrate at 1 uM in presence of 32P-ATP by Hotspot assay relative to control; values are per cent of control.
Experiment [12] concerns the target Vascular endothelial growth factor receptor 3 (Homo sapiens) (UniProt P35916). The experiment in a line: Inhibition of human FLT4/VEGFR3 using poly[Glu:Tyr] (4:1) as substrate at 1 uM in presence of 32P-ATP by Hotspot assay relative to control; values are per cent of control.
Experiment [13] has as its target Serine/threonine-protein kinase 16 (Homo sapiens) (UniProt O75716). In words: Inhibition of human STK16 using myelin basic protein as substrate at 1 uM in presence of 32P-ATP by Hotspot assay relative to control; values are per cent of control.
The target of experiment [14] is BDNF/NT-3 growth factors receptor (Homo sapiens) (UniProt Q16620). In words: Residual activity of human TRKB using poly[Glu:Tyr] (4:1) as substrate at 1 uM in presence of 32P-ATP by Hotspot assay relative to control.
The target in experiment [15] is Aurora kinase B (Homo sapiens) (UniProt Q96GD4). The experiment in a line: Inhibition of human Aurora B using H-LRRASLG as substrate at 1 uM in presence of 32P-ATP by Hotspot assay relative to control; values are per cent of control.
Experiment [16] has as its target Cyclin-dependent kinase 5/CDK5 activator 1 (Homo sapiens) (UniProt Q00535+Q15078). In words: Inhibition of human CDK5/p35 using RB Protein as substrate at 1 uM in presence of 32P-ATP by Hotspot assay relative to control; values are per cent of control.
Experiment [17] concerns the target Serine/threonine-protein kinase MARK1 (Homo sapiens) (UniProt Q9P0L2). In words: Inhibition of human MARK1 using KKKVSRSGLYRSPSMPENLNRPR as substrate at 1 uM in presence of 32P-ATP by Hotspot assay relative to control; values are per cent of control.
Experiment [18] concerns the target Ephrin type-A receptor 4 (Homo sapiens) (UniProt P54764). The experiment in a line: Inhibition of human EPHA4 using poly[Glu:Tyr] (4:1) as substrate at 1 uM in presence of 32P-ATP by Hotspot assay relative to control; values are per cent of control.

Sequence of Serine/threonine-protein kinase MARK1 (Homo sapiens) (Q9P0L2 whole entry, looked up): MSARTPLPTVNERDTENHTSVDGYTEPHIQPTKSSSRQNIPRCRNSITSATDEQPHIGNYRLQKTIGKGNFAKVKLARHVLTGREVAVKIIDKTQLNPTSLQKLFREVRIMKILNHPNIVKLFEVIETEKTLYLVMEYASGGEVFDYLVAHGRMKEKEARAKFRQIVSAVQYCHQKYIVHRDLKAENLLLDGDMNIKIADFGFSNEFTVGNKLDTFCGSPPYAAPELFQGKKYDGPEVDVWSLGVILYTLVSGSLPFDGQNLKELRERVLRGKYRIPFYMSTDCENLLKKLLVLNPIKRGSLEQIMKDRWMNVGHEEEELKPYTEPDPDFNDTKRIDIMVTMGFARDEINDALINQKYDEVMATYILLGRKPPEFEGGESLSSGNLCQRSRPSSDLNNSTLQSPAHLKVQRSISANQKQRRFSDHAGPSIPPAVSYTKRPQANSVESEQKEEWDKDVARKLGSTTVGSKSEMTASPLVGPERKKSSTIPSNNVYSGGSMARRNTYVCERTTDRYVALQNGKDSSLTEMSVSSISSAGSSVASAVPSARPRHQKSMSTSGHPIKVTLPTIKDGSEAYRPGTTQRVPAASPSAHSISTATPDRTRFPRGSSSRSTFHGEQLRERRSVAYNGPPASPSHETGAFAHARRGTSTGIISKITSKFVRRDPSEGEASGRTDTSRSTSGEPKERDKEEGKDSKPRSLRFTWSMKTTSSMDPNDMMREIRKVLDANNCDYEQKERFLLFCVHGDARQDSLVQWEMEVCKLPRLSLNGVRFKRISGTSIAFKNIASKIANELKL
Sequence of Aurora kinase B (Homo sapiens) (Q96GD4 whole entry): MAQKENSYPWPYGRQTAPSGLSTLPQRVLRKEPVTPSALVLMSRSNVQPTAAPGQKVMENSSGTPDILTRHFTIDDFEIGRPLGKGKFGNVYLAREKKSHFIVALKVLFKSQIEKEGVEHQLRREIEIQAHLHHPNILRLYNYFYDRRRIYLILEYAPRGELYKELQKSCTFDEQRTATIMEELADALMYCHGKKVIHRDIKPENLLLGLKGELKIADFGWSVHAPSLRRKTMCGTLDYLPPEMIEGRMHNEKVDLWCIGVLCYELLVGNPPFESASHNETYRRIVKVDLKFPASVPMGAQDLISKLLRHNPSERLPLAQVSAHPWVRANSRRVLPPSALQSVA
Sequence of Protein kinase C eta type (Homo sapiens) (P24723 whole entry): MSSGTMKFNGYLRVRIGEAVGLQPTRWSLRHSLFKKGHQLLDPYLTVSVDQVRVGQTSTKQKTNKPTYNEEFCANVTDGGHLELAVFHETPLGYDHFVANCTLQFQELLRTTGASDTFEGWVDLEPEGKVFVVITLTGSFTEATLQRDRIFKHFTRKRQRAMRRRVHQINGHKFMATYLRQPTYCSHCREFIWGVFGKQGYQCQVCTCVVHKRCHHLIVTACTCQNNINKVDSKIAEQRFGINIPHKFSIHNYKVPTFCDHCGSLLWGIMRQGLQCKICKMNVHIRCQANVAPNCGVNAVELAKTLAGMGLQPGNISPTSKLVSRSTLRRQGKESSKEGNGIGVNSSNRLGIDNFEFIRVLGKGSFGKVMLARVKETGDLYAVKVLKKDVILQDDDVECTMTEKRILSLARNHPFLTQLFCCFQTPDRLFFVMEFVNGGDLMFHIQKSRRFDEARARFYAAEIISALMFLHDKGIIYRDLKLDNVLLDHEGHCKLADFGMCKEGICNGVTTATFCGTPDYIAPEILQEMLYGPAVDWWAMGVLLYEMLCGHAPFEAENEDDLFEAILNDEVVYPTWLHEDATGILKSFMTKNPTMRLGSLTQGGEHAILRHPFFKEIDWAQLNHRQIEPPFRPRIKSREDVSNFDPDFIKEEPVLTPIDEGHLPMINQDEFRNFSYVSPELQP
Sequence of Interleukin-1 receptor-associated kinase 1 (Homo sapiens) (P51617 whole entry, looked up): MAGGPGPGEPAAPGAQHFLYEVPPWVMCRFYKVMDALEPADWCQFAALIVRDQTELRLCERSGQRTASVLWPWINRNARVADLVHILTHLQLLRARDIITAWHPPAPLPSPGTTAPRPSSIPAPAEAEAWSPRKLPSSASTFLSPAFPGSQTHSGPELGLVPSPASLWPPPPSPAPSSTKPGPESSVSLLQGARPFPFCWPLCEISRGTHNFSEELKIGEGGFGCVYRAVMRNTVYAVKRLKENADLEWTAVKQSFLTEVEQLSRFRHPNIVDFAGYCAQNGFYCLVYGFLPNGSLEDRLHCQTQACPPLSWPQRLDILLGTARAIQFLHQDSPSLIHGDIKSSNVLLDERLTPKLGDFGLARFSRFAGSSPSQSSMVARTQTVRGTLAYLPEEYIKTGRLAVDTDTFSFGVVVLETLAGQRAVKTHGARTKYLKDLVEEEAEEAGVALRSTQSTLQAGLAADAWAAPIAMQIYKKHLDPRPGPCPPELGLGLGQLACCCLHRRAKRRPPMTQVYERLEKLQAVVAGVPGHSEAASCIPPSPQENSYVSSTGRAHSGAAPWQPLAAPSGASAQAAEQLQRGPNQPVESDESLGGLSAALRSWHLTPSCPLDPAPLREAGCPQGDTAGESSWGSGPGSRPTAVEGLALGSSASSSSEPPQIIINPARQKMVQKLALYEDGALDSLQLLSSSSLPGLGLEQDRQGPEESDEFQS
Sequence of Mitogen-activated protein kinase 9 (Homo sapiens) (P45984 whole entry, looked up): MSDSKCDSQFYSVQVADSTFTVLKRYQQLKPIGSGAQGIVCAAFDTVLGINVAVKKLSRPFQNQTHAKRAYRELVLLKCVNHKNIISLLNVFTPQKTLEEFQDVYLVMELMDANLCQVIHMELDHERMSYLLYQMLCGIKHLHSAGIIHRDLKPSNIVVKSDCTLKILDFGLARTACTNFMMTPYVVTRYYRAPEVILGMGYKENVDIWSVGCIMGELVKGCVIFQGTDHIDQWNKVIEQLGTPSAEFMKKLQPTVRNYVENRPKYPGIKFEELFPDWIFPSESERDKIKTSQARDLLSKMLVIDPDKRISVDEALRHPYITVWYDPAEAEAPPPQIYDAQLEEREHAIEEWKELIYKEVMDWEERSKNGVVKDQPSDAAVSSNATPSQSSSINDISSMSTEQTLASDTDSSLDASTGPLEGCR
Sequence of Vascular endothelial growth factor receptor 3 (Homo sapiens) (P35916 whole entry): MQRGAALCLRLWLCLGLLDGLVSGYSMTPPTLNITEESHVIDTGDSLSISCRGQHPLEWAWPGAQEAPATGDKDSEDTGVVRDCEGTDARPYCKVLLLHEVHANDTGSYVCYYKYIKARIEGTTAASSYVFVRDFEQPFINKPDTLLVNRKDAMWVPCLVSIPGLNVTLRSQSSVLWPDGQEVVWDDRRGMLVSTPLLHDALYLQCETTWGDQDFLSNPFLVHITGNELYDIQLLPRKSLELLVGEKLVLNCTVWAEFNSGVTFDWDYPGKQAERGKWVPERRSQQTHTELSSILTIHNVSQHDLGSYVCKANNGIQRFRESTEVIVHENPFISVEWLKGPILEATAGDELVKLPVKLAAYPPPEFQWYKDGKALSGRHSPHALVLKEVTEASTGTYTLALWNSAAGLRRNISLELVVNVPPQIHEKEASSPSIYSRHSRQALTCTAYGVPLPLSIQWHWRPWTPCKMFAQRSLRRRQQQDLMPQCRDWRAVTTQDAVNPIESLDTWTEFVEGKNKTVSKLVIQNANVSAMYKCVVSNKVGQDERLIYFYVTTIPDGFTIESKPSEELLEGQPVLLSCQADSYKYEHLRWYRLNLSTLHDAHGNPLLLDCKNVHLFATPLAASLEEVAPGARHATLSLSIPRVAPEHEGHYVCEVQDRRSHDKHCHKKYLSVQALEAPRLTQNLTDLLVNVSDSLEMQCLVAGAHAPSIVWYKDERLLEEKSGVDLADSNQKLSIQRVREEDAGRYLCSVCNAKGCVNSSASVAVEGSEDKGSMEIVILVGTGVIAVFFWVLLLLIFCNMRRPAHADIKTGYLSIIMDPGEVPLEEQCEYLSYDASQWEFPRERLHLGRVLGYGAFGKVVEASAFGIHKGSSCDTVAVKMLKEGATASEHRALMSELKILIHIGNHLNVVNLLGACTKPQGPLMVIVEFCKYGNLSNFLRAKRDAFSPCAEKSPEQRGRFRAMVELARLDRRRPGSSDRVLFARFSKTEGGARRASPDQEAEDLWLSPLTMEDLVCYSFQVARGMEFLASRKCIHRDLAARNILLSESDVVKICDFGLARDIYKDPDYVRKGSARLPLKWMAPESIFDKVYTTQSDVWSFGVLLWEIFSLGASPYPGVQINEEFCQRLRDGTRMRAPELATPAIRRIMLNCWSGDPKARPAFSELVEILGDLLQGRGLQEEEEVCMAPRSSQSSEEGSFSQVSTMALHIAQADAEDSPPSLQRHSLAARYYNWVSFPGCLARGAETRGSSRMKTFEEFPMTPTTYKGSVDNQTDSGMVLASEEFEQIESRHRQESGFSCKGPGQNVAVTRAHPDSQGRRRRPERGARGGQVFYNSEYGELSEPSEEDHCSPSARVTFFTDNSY
Sequence of Calcium/calmodulin-dependent protein kinase type II subunit alpha (Homo sapiens) (Q9UQM7 whole entry): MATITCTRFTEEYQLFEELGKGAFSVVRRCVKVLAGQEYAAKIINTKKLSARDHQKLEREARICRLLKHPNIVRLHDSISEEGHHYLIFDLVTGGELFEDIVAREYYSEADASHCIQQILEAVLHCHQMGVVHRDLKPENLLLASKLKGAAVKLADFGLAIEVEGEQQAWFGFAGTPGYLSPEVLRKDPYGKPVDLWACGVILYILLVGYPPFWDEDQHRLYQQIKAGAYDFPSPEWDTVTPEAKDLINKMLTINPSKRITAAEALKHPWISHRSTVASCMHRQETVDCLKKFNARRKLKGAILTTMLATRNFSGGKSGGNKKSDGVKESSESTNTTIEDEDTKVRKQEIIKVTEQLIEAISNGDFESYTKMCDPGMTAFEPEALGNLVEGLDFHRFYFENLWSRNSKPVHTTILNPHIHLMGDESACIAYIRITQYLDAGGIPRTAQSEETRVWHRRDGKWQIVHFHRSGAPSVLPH

Regarding `CC(C)S(=O)(=O)c1ccc2nccc(Nc3ccc4scnc4c3)c2c1`, the residual activity in [1] was found to be 88%; in [2], 98.5%; in experiment [3], 103%; in experiment [4], 100%; in experiment [5] it was 97%; in experiment [6], 106%. The residual activity in experiment [7] is 94.9%; in experiment [8], 108%; in experiment [9], 97.2%; in [10], 102%; in experiment [11], 102%; in experiment [12], 83.1%. Moreover, the residual activity was determined as 98.8% in [13]; 86.7% in experiment [14]; 97.5% in experiment [15]; 98.7% in [16]; 96.3% in experiment [17]; 70.9% in experiment [18].
With `CNC(=O)c1ccc2c(c1)ncn2-c1ccc(CC(=O)OC(C)(C)C)cc1`, the residual activity in [1] is 92.5%; in experiment [2], 89.9%; in experiment [3], 97.9%; in experiment [4], 94.7%; in [5], 90.7%; in experiment [6], 96.6%. In addition, the residual activity in [7] was 103%; in [8], 89.7%; in experiment [9] it was 101%; in experiment [10] it was 78.6%; in [11], 101%; in [12], 78.8%. In addition, the residual activity in experiment [13] was 85.4%; in experiment [14], 97.8%; in [15] it was 82.1%; in experiment [16], 97.1%; in experiment [17], 96.2%; in [18] it was 95.5%.
As to `Cc1cc(-c2cnc(N)c3c(-c4ccc5scnc5c4)csc23)n(C)n1`, the residual activity in experiment [1] was 73.6%; in experiment [2] it was 106%; in experiment [3] it was 98.9%; in experiment [4], 104%; in experiment [5], 102%; in experiment [6], 69.7%. The residual activity in [7] turned out to be 108%; in experiment [8], 95.9%; in experiment [9], 86%; in experiment [10], 90%; in experiment [11] it was 93.7%; in [12] it was 103%. Moreover, the residual activity in experiment [13] came to 97.6%; in [14], 106%; in [15], 89.8%; in [16], 97.8%; in experiment [17] it was 103%; in experiment [18], 48.9%.
